# Assay results taken from patent US7863242B2, “Compositions for down-regulation of CCR5 expression and methods of use thereof” (priority 2003, dated 2011).
# Tests used:
# CCR5 mRNA = test: Semiquantitative RT-PCR of CCR5 transcripts in PBMC cultures; type: cell-based, human; conditions: PBMCs cultured with IL-2 and drug for 7 days
# Experimental: PCR Methodologies: Amplification of CCR5 and β-chemokine RNA sequences was performed by RT-PCR as described (Baba, 1996; Levine, 1996).
# CCR5 [1] = test: CCR5 surface expression on CD4 and CD8 T lymphocytes in IL-2 cultured PBMCs (flow cytometry, mAb 182); type: cell-based, human; conditions: days 7 and 10, five donors tested
# Experimental: CCR5 surface expression was measured on PBMCs cultured in the presence of IL-2 for 7-10 days.
# HIV-1 ADA [2] = test: microbe, parasite or virus in culture
# Experimental: (§1) Infectivity Assays: The following viruses were used in infection experiments: HIV-1 IIIb, HIV-1 ADA, HIV-1 BaL, HIV-1 JRFL, HIV-1 JRCSF, and HIV-1 SF162. HIV-1 IIIb is a T cell line-adapted lab strain that uses CXCR4 for entry into cells, whereas the rest are isolates that use CCR5. Viruses were obtained from the National Institutes of Health AIDS Research and Reference Reagent Program.
# (§2) For infection of PBMCs, fresh donor PBMCs were cultured for 7 days in medium containing IL-2. On day 7, cells were exposed to the virus for 3 h. Nonadsorbed virus was removed by washing cells with PBS three times. Infected cells were cultured in IL-2 medium. Infection of MDMs was carried out as described before (Perno, 1993). Unless otherwise indicated, PBMCs were infected by using an moi of 0.001, and MDM were infected by using an moi of 0.002. Virus growth was monitored in culture supernatants by measuring p24 antigen levels by ELISA (NEN) or by measuring viral RT activity in an RT assay (Willey, 1988).
# (§3) Antiviral Activity of RAPA in PBMCs: The antiviral activity of RAPA was assayed in PBMCs that had been cultured in the presence of RAPA for 7 days before infection. Cells were infected with the X4 HIV-1 IIIb and the R5 HIV-1 ADA strains. Infected cells were cultured in the presence of RAPA (same concentration as during pretreatment) for 7 additional days, during which time virus replication and cell viability were measured.
# To test this hypothesis, donor PBMCs were cultured in IL-2 medium in the absence or presence of RAPA (1, 10, and 100 nM). […] Infected cells were cultured in the presence of RAPA (same concentration as during pretreatment) plus 0.1 nM TAK-779. Virus production was determined 7 days after infection.
# Donor PBMCs were cultured in IL-2 medium in the absence or presence of HU (0 and 10 uM). After 7 days, cells were infected with HIV-1 ADA. Infected cells were cultured in the presence of HU (same concentration as during pretreatment) plus different concentration of TAK-779 ranging from 0, 2 and 20 nM). Virus production was determined 7 days after infection.
# In order to determine the nature and degree of interaction between RAPA and T20, infectivity assays were performed in the presence of the drugs, alone and in combination. The infectivity assays were performed using PBMCs from healthy donors. PBMCs were cultured for 7 days in the presence of IL-2 (100 U/ml) in the presence or absence of RAPA. On day 7, cells were infected by exposure to the R5 strain HIV-1 ADA (m.o.i of 0.001) for 2 h. Non-adsorbed virus was removed by 3 washes with PBS. Infected cells were then plated in RPMI-10 supplemented with IL-2 (100 U/ml) in the presence of different concentrations of RAPA and T20. Each drug concentration was tested in triplicate. Medium was changed in day 3 after infection and drugs were added at the same concentration as before. On day 7 after infection, virus production was measured in the culture supernatants using a commercial p24 antigen ELISA (NCI, Frederick). Cell viability was determined using the MTT assay (Roche).
# The antiviral data was then analyzed for synergy using two different methodologies, the Median Effect principle and Three Dimensional modeling.
# human lymphocytes = test: Cell cycle analysis of activated PBMCs (propidium iodide, flow cytometry); type: cell-based; conditions: 4 μM, 24 hours, PBMCs from 2 normal donors
# Experimental: Indirubin-3′-monoxime (IM) arrests human lymphocytes in G1 phase. PBMCs from 2 normal donors were activated in absence and presence of 4 μM Indirubin-3′-momoxime (IM) for 24 hours. Cells were then fixed with 70% Ethanol, stained with Propidium Iodide, and analyzed by Flow cytometry. Percentages of cells in each phase of the cell cycle are shown.
# R5 strains of HIV-1 = test: Replication of a panel of five R5 strains of HIV-1 in PBMCs; type: cell-based; conditions: Human immunodeficiency virus 1, PBMC
# Experimental: as §1, §2
# RAPA at 0.01 nM inhibited R5 HIV-1 by 10-64% depending on the strains, whereas 0.1 nM RAPA inhibited virus replication by 15-85%. At 1 nM RAPA, all R5 viruses were inhibited by ≧90%.
# HIV-1 SF 162 = HIV-1 SF 162 replication in monocyte-derived macrophages; type: cell-based; conditions: Human immunodeficiency virus 1, Macrophage; RAPA at 0.01 nM, additional experiment; read-out: inhibition of HIV-1 SF 162 in MDMs
# Experimental: as §2
# (§4) To this end, donor monocytes were cultured for 5 days in the presence of RAPA. On day 5, cells were infected with HIV-1 ADA. Infected cells were cultured in the presence of RAPA for an additional 14 days. Virus production was measured on the culture supernatants on days 7, 10, and 14 after infection. Cell viability was measured by the MTT assay at the end of the experiment.
# MIP-1α = test: Extracellular MIP-1α level in PBMC culture supernatants (ELISA); type: cell-based, human; conditions: day 10, four donors
# [3] = Tolerability of Rapamycin in HIV infected volunteers; type: in vivo, human; conditions: 2 mg/day after 6 mg loading dose, 28 days
# Experimental: To assess the expression activity of CCR5 and its effects on levels of CCR5 receptors in vivo, an open-labeled, non-randomized proof of concept trial was performed in which 8 volunteers with established HIV infection were given 2 mg/day of Rapamycin, following a 6 mg loading dose, for 28 days. Peripheral blood for determining expression levels of CCR5 was obtained at the screening visit, days 7, 14 and 28 of the Rapamycin dosing, and at day 42 (which was two weeks following the last dose of Rapamycin).
# MIP-1β = test: Extracellular MIP-1β level in PBMC culture supernatants (ELISA); type: cell-based, human; conditions: for increase of MIP-1β protein versus untreated control: day 10
# Experimental: Levels of the β-chemokines MIP-1α, MIP-1β, and RANTES were measured in culture supernatants by using ELISA kits (R & D Systems).
# RAPA Increases Extracellular Levels of MIP-1α and MIP-1β in PBMC Cultures: Because lymphocytes and monocytes cultured in the presence of RAPA presented reduced CCR5 RNA and protein levels, the levels of the CCR5 ligands MIP-1α, MIP-1β, and RANTES were measured in supernatants of RAPA-treated PBMC cultures. […] On day 10, percentage of cells expressing CCR5 and supernatant chemokine content were determined for each donor. […] Among the different donors, RAPA-treated cultures contained 6-39-fold higher levels of MIP-1α than untreated cultures. Similarly, MIP-1β levels were increased 17-47-fold in the presence of RAPA as compared with untreated controls. […] Chemokine results obtained in two of the donors, showing disparity of RANTES levels in the presence of RAPA, are depicted in FIG. 3A.
# The above results were confirmed by evaluating the effect of RAPA on the secretion of MIP-1β, a chemokine that uses CCR5 as its only receptor, in cultures of PBMCs derived from a donor homozygous for the Δ32 mutation in the CCR5 gene. In this experimental setting, in which MIP-1β cannot be endocytosed by CCR5, the effect of RAPA on MIP-1β protein levels provided information regarding the mechanism by which RAPA increases β-chemokine levels. To this end, stimulated PBMCs from two normal donors and from a CCR5-null donor were cultured in the presence of RAPA as in previous experiments. MIP-1β levels in supernatants were evaluated on day 10. Representative results obtained in one of the normal donors are shown in FIG. 3B next to the results obtained on the CCR5-null donor.
# HIV-1 IIIb = HIV-1 IIIb replication in PBMCs (p24 assay); type: cell-based; conditions: Human immunodeficiency virus 1, IIIB, PBMC, 7 days pretreatment, day 7 after infection
# Experimental: as §1, §2
# as §3, with “Cells were infected with the X4 HIV-1 IIIb and the R5 HIV-1 ADA strains.” left out
# MDMs = test: Cell viability of infected MDMs (MTT assay); type: cell-based, human; conditions: end of experiment (day 14 after infection)
# Experimental: as §4
# CCR5 [4] = test: CCR5 cell-surface expression on maturing monocytes (CD14-gated flow cytometry); type: cell-based, human; conditions: monocytes cultured 5 days, three donors
# HIV-1 ADA [5] = test: HIV-1 ADA replication in monocyte-derived macrophages (RT assay); type: cell-based
# Experimental: as §2, §4
# In the above-described experiment, monocytes had been pretreated with RAPA during the 5-day differentiation period. To control for the possible interference of RAPA with the process of monocyte differentiation, a new infection experiment in which RAPA was not present during the 5-day monocyte differentiation period was designed. To this end, fresh monocytes were cultured for 5 days in the absence of RAPA. On day 5, cells were infected with HIV-1 ADA and then exposed to RAPA.
# PBMCs = PBMCs with IL-2, day 7
# [6] = Human immunodeficiency virus 1, PBMC, 168 h, read-out: Fa (fractional inhibition)
molecule,measurement,setting,value
"NC(=O)NO [HU, hydroxyurea]",CCR5 transcripts (semiquantitative RT-PCR),CCR5 mRNA,decreased amounts of CCR5 transcripts
same,concentrations that down-regulated CCR5 surface expression on CD4 lymphocytes,CCR5 [1],≥ 50 µM
same,reduction of p24 levels,"HIV-1 ADA [2]; 10 uM of HU alone, day 7 after infection",approximately 60%
Indirubin-3′-monoxime,percentage of cells in G1 phase versus untreated control,human lymphocytes,the % of cells in G1 increases
"CO[C@H]1C[C@@H]2CC[C@@H](C)[C@@](O)(O2)C(=O)C(=O)N2CCCC[C@H]2C(=O)O[C@H]([C@H](C)C[C@@H]2CC[C@@H](O)[C@H](OC)C2)CC(=O)[C@H](C)/C=C(\C)[C@@H](O)[C@@H](OC)C(=O)[C@H](C)C[C@H](C)/C=C/C=C/C=C/1C [RAPA, rapamycin]",inhibition at 10 pM,"R5 strains of HIV-1; read-out: inhibition of R5 HIV-1, depending on the strains",10 to 64%
same,inhibition at 0.0001 µM,R5 strains of HIV-1; read-out: inhibition of R5 HIV-1 replication,15 to 85%
same,inhibition at 0.001 µM,R5 strains of HIV-1; read-out: inhibition of all R5 viruses,≥ 90%
same,inhibition at 10 pM,HIV-1 SF 162,45%
same,MIP-1α level versus untreated cultures,MIP-1α,6-39 fold
same,concentrations that down-regulated CCR5 surface expression on CD4 lymphocytes,CCR5 [1],≥ 0.001 µM
same,tolerability,[3],well-tolerated
same,increase of MIP-1β protein versus untreated control,MIP-1β; CCR5-null donor (Δ32 homozygous),1.2 fold
same,MIP-1β level versus untreated controls,"MIP-1β; day 10, four donors",17-47 fold
same,increase of MIP-1β protein versus untreated control,MIP-1β; normal donor,9.3 fold
same,IC50,"HIV-1 ADA [2]; Human immunodeficiency virus 1, PBMC, 168 h, read-out: Dm (dose at 50% inhibition, equivalent to IC50 value)",0.31 nM
same,inhibition at 30 pM,HIV-1 ADA [2]; [6],1.7%
same,inhibition at 60 pM,HIV-1 ADA [2]; [6],10.2%
same,inhibition at 0.00012 µM,HIV-1 ADA [2]; [6],11.4%
same,inhibition at 0.00025 µM,HIV-1 ADA [2]; [6],54%
same,inhibition at 0.0005 µM,HIV-1 ADA [2]; [6],62%
same,inhibition at 0.001 µM,HIV-1 ADA [2]; [6],88%
same,inhibition at 0.01 µM,HIV-1 IIIb; 10 nM RAPA,13.5%
same,inhibition at 0.1 µM,HIV-1 IIIb; 100 nM RAPA,32%
same,concentrations at which cell viability was reduced,MDMs,≥ 10 nM
same,concentrations giving consistent down-regulation of CCR5 surface expression on monocytes,CCR5 [4],≥ 10 pM
same,inhibition of virus replication in already differentiated macrophages,"HIV-1 ADA [5]; 1 nM RAPA added after infection on day 5, day 14 after infection, one value per donor",~80%
same,inhibition at 0.001 µM,"HIV-1 ADA [5]; Human immunodeficiency virus 1, Macrophage, 1 nM RAPA added after infection on day 5, day 14 after infection, one value per donor, read-out: inhibition of virus replication in already differentiated macrophages",~60%
same,inhibition at 10 pM,"HIV-1 ADA [5]; Human immunodeficiency virus 1, Macrophage, RAPA at 0.01 nM, additional experiment, read-out: inhibition of HIV-1 ADA in MDMs",64%
same,inhibition of virus production in MDMs,"HIV-1 ADA [5]; RAPA 0.1-100 nM, present during 5-day differentiation, day 14 after infection",70-95%
same,drug concentration at which drug toxicity was observed,PBMCs,above 10^3 nM
